Like-named read-outs stand apart in the source and are kept apart here.
Biological target: GABARAPL2 (Homo sapiens, UniProt P60520)
Details: for CSP: GABARAPL2:ligand molar ratio 1:2; for 3D Mapping code: molar ratio 1:2

Chain of GABARAPL2 (P60520 whole entry): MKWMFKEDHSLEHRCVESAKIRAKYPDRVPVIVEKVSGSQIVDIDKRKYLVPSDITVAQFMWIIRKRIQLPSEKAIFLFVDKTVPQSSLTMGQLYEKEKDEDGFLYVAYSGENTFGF

Question: How did the CSP (residue F115) turn out when `O=C1Nc2ccc(I)cc2C1=Cc1cc(Br)c(O)c(Br)c1` [compound 4] was run?
Answer: 0.012 ppm

Question: What about the CSP (residue G38) of the same molecule?
Answer: 0.040 ppm

Question: What about the “3D Mapping code” value (residue G38) of the same molecule?
Answer: Light green

Question: What about the CSP (residue G103) of the same molecule?
Answer: 0.019 ppm

Question: What about the CSP (residue G111) of the same molecule?
Answer: 0.010 ppm

Question: What about the CSP (residue G116) of the same molecule?
Answer: 0.007 ppm

Question: And the CSP (residue H9)?
Answer: 0.008 ppm

Question: And the CSP (residue H13)?
Answer: 0.031 ppm

Question: What about the “3D Mapping code” value (residue H13) of the same molecule?
Answer: Light green

Question: What about the CSP (residue I21) of the same molecule?
Answer: 0.054 ppm

Question: And the “3D Mapping code” value (residue I21)?
Answer: Orange

Question: What about the CSP (residue I32) of the same molecule?
Answer: 0.057 ppm

Question: What about the “3D Mapping code” value (residue I32) of the same molecule?
Answer: Blue

Question: What about the CSP (residue I41) of the same molecule?
Answer: 0.00428 ppm

Question: And the CSP (residue I44)?
Answer: 0.029 ppm

Question: And the “3D Mapping code” value (residue I44)?
Answer: Light green

Question: And the CSP (residue I55)?
Answer: 0.026 ppm

Question: And the “3D Mapping code” value (residue I55)?
Answer: Light green

Question: And the CSP (residue I63)?
Answer: 0.014 ppm

Question: And the CSP (residue I64)?
Answer: 0.021 ppm

Question: What about the CSP (residue I68) of the same molecule?
Answer: 0.021 ppm

Question: And the CSP (residue I76)?
Answer: 0.004 ppm

Question: And the CSP (residue K2)?
Answer: 0.017 ppm

Question: What about the CSP (residue K6) of the same molecule?
Answer: 0.023 ppm

Question: What about the CSP (residue K20) of the same molecule?
Answer: 0.058 ppm

Question: And the “3D Mapping code” value (residue K20)?
Answer: Orange

Question: What about the CSP (residue K24) of the same molecule?
Answer: 0.015 ppm

Question: And the CSP (residue K35)?
Answer: 0.014 ppm

Question: And the CSP (residue K46, estimated)?
Answer: 0.050 ppm

Question: What about the “3D Mapping code” value (residue K46) of the same molecule?
Answer: Blue

Question: What about the CSP (residue K48) of the same molecule?
Answer: 0.168 ppm

Question: What about the “3D Mapping code” value (residue K48) of the same molecule?
Answer: Blue

Question: And the CSP (residue K66)?
Answer: 0.020 ppm

Question: And the CSP (residue K74)?
Answer: 0.011 ppm

Question: And the CSP (residue K97)?
Answer: 0.012 ppm

Question: What about the CSP (residue K99) of the same molecule?
Answer: 0.018 ppm

Question: And the CSP (residue L11)?
Answer: 0.016 ppm

Question: And the CSP (residue L50)?
Answer: 0.096 ppm

Question: And the “3D Mapping code” value (residue L50)?
Answer: Blue

Question: What about the CSP (residue L70) of the same molecule?
Answer: 0.006 ppm

Question: What about the CSP (residue L78) of the same molecule?
Answer: 0.006 ppm

Question: What about the CSP (residue L105) of the same molecule?
Answer: 0.060 ppm

Question: What about the “3D Mapping code” value (residue L105) of the same molecule?
Answer: Orange

Question: What about the CSP (residue M1) of the same molecule?
Answer: 0.010 ppm

Question: What about the CSP (residue M61) of the same molecule?
Answer: 0.015 ppm

Question: And the CSP (residue N113)?
Answer: 0.00264 ppm

Question: And the CSP (residue P26, estimated)?
Answer: 0.050 ppm

Question: What about the “3D Mapping code” value (residue P26) of the same molecule?
Answer: Light green

Question: What about the CSP (residue P30, estimated) of the same molecule?
Answer: 0.110 ppm

Question: And the “3D Mapping code” value (residue P30)?
Answer: Blue

Question: What about the CSP (residue P52, estimated) of the same molecule?
Answer: 0.070 ppm

Question: And the “3D Mapping code” value (residue P52)?
Answer: Blue

Question: And the CSP (residue P71, estimated)?
Answer: 0.010 ppm

Question: And the CSP (residue Q40)?
Answer: 0.017 ppm

Question: And the CSP (residue Q59)?
Answer: 0.016 ppm

Question: What about the CSP (residue Q69) of the same molecule?
Answer: 0.020 ppm

Question: And the CSP (residue R14)?
Answer: 0.091 ppm

Question: And the “3D Mapping code” value (residue R14)?
Answer: Orange

Question: And the CSP (residue R22)?
Answer: 0.083 ppm

Question: And the “3D Mapping code” value (residue R22)?
Answer: Orange

Question: What about the CSP (residue R28) of the same molecule?
Answer: 0.064 ppm

Question: What about the “3D Mapping code” value (residue R28) of the same molecule?
Answer: Orange

Question: What about the CSP (residue R47, estimated) of the same molecule?
Answer: 0.100 ppm

Question: And the “3D Mapping code” value (residue R47)?
Answer: Blue

Question: What about the CSP (residue R65) of the same molecule?
Answer: 0.008 ppm

Question: What about the CSP (residue R67) of the same molecule?
Answer: 0.00158 ppm

Question: And the CSP (residue S10)?
Answer: 0.019 ppm

Question: And the CSP (residue S18)?
Answer: 0.021 ppm

Question: What about the CSP (residue S37) of the same molecule?
Answer: 0.030 ppm

Question: And the “3D Mapping code” value (residue S37)?
Answer: Light green

Question: And the CSP (residue S39)?
Answer: 0.017 ppm

Question: What about the CSP (residue S53) of the same molecule?
Answer: 0.076 ppm

Question: And the “3D Mapping code” value (residue S53)?
Answer: Orange

Question: And the CSP (residue S72)?
Answer: 0.004 ppm

Question: What about the CSP (residue S110) of the same molecule?
Answer: 0.010 ppm

Question: What about the CSP (residue T56) of the same molecule?
Answer: 0.008 ppm

Question: What about the CSP (residue T114) of the same molecule?
Answer: 0.00144 ppm

Question: What about the CSP (residue V16) of the same molecule?
Answer: 0.051 ppm

Question: What about the “3D Mapping code” value (residue V16) of the same molecule?
Answer: Light green

Question: What about the CSP (residue V29) of the same molecule?
Answer: 0.102 ppm

Question: What about the “3D Mapping code” value (residue V29) of the same molecule?
Answer: Blue

Question: And the CSP (residue V31)?
Answer: 0.128 ppm

Question: What about the “3D Mapping code” value (residue V31) of the same molecule?
Answer: Blue

Question: And the CSP (residue V33)?
Answer: 0.064 ppm

Question: What about the “3D Mapping code” value (residue V33) of the same molecule?
Answer: Orange

Question: What about the CSP (residue V36) of the same molecule?
Answer: 0.024 ppm

Question: What about the CSP (residue V42) of the same molecule?
Answer: 0.00232 ppm

Question: What about the CSP (residue V51) of the same molecule?
Answer: 0.077 ppm

Question: What about the “3D Mapping code” value (residue V51) of the same molecule?
Answer: Blue

Question: And the CSP (residue V57)?
Answer: 0.024 ppm

Question: And the CSP (residue V80)?
Answer: 0.028 ppm

Question: What about the “3D Mapping code” value (residue V80) of the same molecule?
Answer: Light green

Question: And the CSP (residue V107)?
Answer: 0.039 ppm

Question: And the “3D Mapping code” value (residue V107)?
Answer: Light green

Question: What about the CSP (residue W3) of the same molecule?
Answer: 0.022 ppm

Question: What about the CSP (residue W62) of the same molecule?
Answer: 0.016 ppm

Question: And the CSP (residue Y25)?
Answer: 0.085 ppm

Question: What about the “3D Mapping code” value (residue Y25) of the same molecule?
Answer: Orange

Question: And the CSP (residue Y49)?
Answer: 0.148 ppm

Question: What about the “3D Mapping code” value (residue Y49) of the same molecule?
Answer: Blue

Question: What about the CSP (residue Y106) of the same molecule?
Answer: 0.097 ppm

Question: What about the “3D Mapping code” value (residue Y106) of the same molecule?
Answer: Orange

Question: And the CSP (residue Y109)?
Answer: 0.012 ppm
